Experimental data from ChEMBL document CHEMBL4196104, “Hawaiienols A-D, Highly Oxygenated p-Terphenyls from an Insect-Associated Fungus, Paraconiothyrium hawaiiense” (J Nat Prod, 2018).
Calls of active or inactive are those of the source. The rule behind the calls is not given here.

How the values were obtained:
Type in all cases: functional, cell-based
SH-SY5Y [1] = assay: Antiproliferative activity against human SH-SY5Y cells at 50 uM after 24 hrs by CCK-8 assay
MCF7 [2] = assay: Antiproliferative activity against human MCF7 cells at 50 uM after 24 hrs by CCK-8 assay
HeLa [3] = assay: Antiproliferative activity against human HeLa cells at 50 uM after 24 hrs by CCK-8 assay
A549 [4] = assay: Antiproliferative activity against human A549 cells at 50 uM after 24 hrs by CCK-8 assay
HCT-116 [5] = assay: Antiproliferative activity against human HCT116 cells at 50 uM after 24 hrs by CCK-8 assay
T-24 [6] = assay: Antiproliferative activity against human T24 cells at 50 uM after 24 hrs by CCK-8 assay
SH-SY5Y [7] = assay: Antiproliferative activity against human SH-SY5Y cells after 24 hrs by CCK-8 assay
MCF7 [8] = assay: Antiproliferative activity against human MCF7 cells after 24 hrs by CCK-8 assay; conditions: MCF7, 24 h
HCT-116 [9] = assay: Antiproliferative activity against human HCT116 cells after 24 hrs by CCK-8 assay; conditions: HCT-116, 24 h
A549 [10] = assay: Antiproliferative activity against human A549 cells after 24 hrs by CCK-8 assay; conditions: A549, 24 h
T-24 [11] = assay: Antiproliferative activity against human T24 cells after 24 hrs by CCK-8 assay; conditions: T-24, 24 h
HeLa [12] = assay: Antiproliferative activity against human HeLa cells after 24 hrs by CCK-8 assay

Row | IC50 (SH-SY5Y [7]) [µM] | IC50 (MCF7 [8]) [µM] | IC50 (HCT-116 [9]) [µM] | IC50 (A549 [10]) [µM] | IC50 (HeLa [12]) [µM] | Structure (SMILES) | Activity (SH-SY5Y [1]) | Activity (MCF7 [2]) | Activity (HeLa [3]) | Activity (A549 [4]) | Activity (HCT-116 [5]) | Activity (T-24 [6]) | IC50 (T-24 [11]) [µM]
1 |  |  |  |  |  | COc1ccc([C@]2(O)[C@H](O)C(=O)[C@@](O)(c3ccc(OC)cc3)[C@H](O)[C@H]2O)cc1 | inactive | inactive | inactive | inactive | inactive | inactive | 
2 |  |  |  |  |  | COc1ccc([C@]2(O)C(=O)[C@@]3(OC)OC2[C@@H](O)[C@@]3(O)c2ccc(OC)cc2)cc1 | inactive | inactive | inactive | inactive | inactive | inactive | 
3 | 9.3 | 42.9 | 57.1 | 23.1 | 19.7 | COc1ccc([C@]23O[C@@H]4C2O[C@](OC)([C@H]3O)[C@]4(O)c2ccc(O)cc2)cc1 |  |  |  |  |  |  | 46.6
4 |  |  |  |  |  | COc1ccc([C@]23O[C@](c4ccc(OC)cc4)([C@@H](O)[C@@H]2O)[C@@H](O)[C@@H]3O)cc1 | inactive | inactive | inactive | inactive | inactive | inactive | 
